In series [1] the test system is genotype 1b (Con-1) HCV replicon. The series is described as follows: HCV replicon luciferase assay, genotype 1b (Con-1). The conditions noted are these: Hepatitis C virus, Huh-7, 72 h, genotype 1b HCV replicon, Huh-7 cells, Renilla luciferase, 3 days. Format: cell-based. The protocol:
The cell lines used to evaluate compounds consist of a human hepatocyte derived cell line (Huh-7) that constitutively expresses a genotype 1b (Con-1) HCV replicon or a genotype 1b (Con-1) HCV replicon with an asparagine replacing the cysteine at amino acid 316, or a genotype 2a (JFH-1) replicon, containing a Renilla luciferase reporter gene. These cells were maintained in Dulbecco's modified Eagle medium (DMEM) containing 10% FBS, 100 U/mL penicillin/streptomycin and 1.0 mg/mL G418.
To evaluate compound efficacy, titrated compounds were transferred to sterile 384-well tissue culture treated plates, and the plates were seeded with HCV replicon cells (50 μL at a density of 2.4×10^3 cells/well) in DMEM containing 4% FBS (final DMSO concentration at 0.5%). After 3 days incubation at 37° C., cells were analyzed for Renilla Luciferase activity using the EnduRen substrate (Promega cat #E6485) according to the manufacturer's directions. Briefly, the EnduRen substrate was diluted in DMEM and then added to the plates to a final concentration of 7.5 μM. The plates were incubated for at least 1 h at 37° C. then read on a Viewlux Imager (PerkinElmer) using a luminescence program. The 50% effective concentration (EC50) was calculated using the four-parameter logistic formula noted above.

In a further series the test system is HCV replicon 1a. The series is described as follows: HCV replicon luciferase assay, genotype 1a. The class given is cell-based. As to conditions: Hepatitis C virus. (In general: Replicon systems follow genome replication, usually without infectious particles.)
Another series has as its system HCV. As to conditions: cited from earlier work.

Where two headings read alike, the source gives them in different places.

One may read the EC50 as the concentration at which the effect is half-maximal.

On to `CNC(=O)c1c(-c2ccc(F)cc2)oc2nc(NCC(F)(F)F)c(-c3ccc(OC)c(C(=O)NC(C)(C#N)C(C)C)c3)cc12` (stereo not shown) [Compound K5004], for which the EC50 in series [1] (read-out: EC50 1b (class)) is below 0.1 µM; in series [1] (read-out: EC50 (uM) 1b), 0.0028 µM. For `CNC(=O)c1c(-c2ccc(F)cc2)oc2nc(CCC(F)(F)F)c(-c3ccc(OC)c(C(=O)NC4(C#N)CC4)c3)cc12` [Compound K6001], the concentration for a half-maximal effect (EC50) in series [1] (read-out: EC50 1b (class)) was below 0.1 µM.

`CNC(=O)c1c(-c2ccc(F)cc2)oc2nc(CCC(F)(F)F)c(-c3cnc(OC)c(C(=O)NC(C)(C)C#N)c3)cc12` [Compound K7001]: the EC50 in series [1] (read-out: EC50 1b (class)) is below 0.1 µM. As to `CNC(=O)c1c(-c2ccc(F)cc2)oc2nc(CCC(F)(F)F)c(-c3cnc(OC)c(C(=O)NC4(C#N)CC4)c3)cc12` [Compound K7003], the EC50 in series [1] (read-out: EC50 1b (class)) is below 0.1 µM. On the same count and under the same terms, with `CNC(=O)c1c(-c2ccc(F)cc2)oc2nc(CCC(F)(F)F)c(-c3cnc(OC)c(C(=O)NC4(C#N)CCCC4)c3)cc12` [Compound K7004] the figure was below 0.1 µM. For `CNC(=O)c1c(-c2ccc(F)cc2)oc2nc(CCC(F)(F)F)c(-c3cnc(OC)c(C(=O)NC(C)(C#N)C(C)C)c3)cc12` (stereo not shown) [Compound K7005], the values for the EC50 in series [1] (read-out: EC50 1b (class)) and in series [1] (read-out: EC50 (uM) 1b) were below 0.1 µM and 0.0028 µM, respectively. Take `CNC(=O)c1c(-c2ccc(F)cc2)oc2nc(NCC(F)(F)F)c(-c3cnc(OC)c(C(=O)NC(C)(C)C#N)c3)cc12` [Compound K8001]: in series [1] (read-out: EC50 1b (class)), the EC50 is below 0.1 µM. Take `CNC(=O)c1c(-c2ccc(F)cc2)oc2nc(NCC(F)(F)F)c(-c3cnc(OC)c(C(=O)NC4(C#N)CC4)c3)cc12` [Compound K8003]: in series [1] (read-out: EC50 1b (class)), the EC50 is below 0.1 µM. `CNC(=O)c1c(-c2ccc(F)cc2)oc2nc(OCC(F)(F)F)c(-c3cccc(C(=O)NC(C)(C)C#N)c3)cc12` [Compound K9001, 5-(3-((2-cyanopropan-2-yl)carbamoyl)phenyl)-2-(4-fluorophenyl)-N-methyl-6-(2,2,2-trifluoroethoxy)furo[2,3-b]pyridine-3-carboxamide]: the results for the EC50 with HCV replicon 1a (read-out: EC50 for 1a instead) and in the series with HCV replicon 1a (read-out: EC50 for 1a instead (class)) were 17.7 nM and below 100 nM, respectively. For the molecule `CC[C@H](C)c1nc2oc(-c3ccc(F)cc3)c(C(=O)NC)c2cc1-c1cccc(C(=O)NC(C)(C)C#N)c1` [Compound K11001], the EC50 is below 0.1 µM in series [1] (read-out: EC50 1b (class)) and 0.0133 µM in series [1] (read-out: EC50 (uM) 1b). For the molecule `CC[C@@H](C)c1nc2oc(-c3ccc(F)cc3)c(C(=O)NC)c2cc1-c1cccc(C(=O)NC(C)(C)C#N)c1` [Compound K11002], the figures for the EC50 in series [1] (read-out: EC50 1b (class)) and in series [1] (read-out: EC50 (uM) 1b) were below 0.1 µM and 0.0044 µM, respectively. `CNC(=O)c1c(-c2ccc(F)cc2)oc2cc(N(CCO)S(C)(=O)=O)c(C3CC3)cc12` [HCV-796]: the hepatic toxicity result in the series on HCV (extended dosing of the combination regimens) is given as “hepatic toxicity observed during extended dosing of the combination regimens”. Further, the “HCV RNA levels in patients” value in the series with HCV (patients, single agent or combined with interferon and ribavirin) is reported as “reduce HCV RNA levels in patients”. alpha-interferon and ribavirin: the “sustained efficacy, share of patients” value with HCV (patients) was 40%.

The values are drawn from US9249152B2, “Cyano containing azabenzofuran compounds for the treatment of hepatitis C” (BRISTOL-MYERS SQUIBB COMPANY, priority 2014, dated 2016).
